Measurements as given in a melting point compilation (Tetko et al.; mined from patent text by program, amines drawn as free bases though some values may be those of a salt).

Row | melting point [°C] | Structure (SMILES)
1 | 206 to 207 | Cc1ccc(CCC(N)CC(=O)O)cc1 (stereo not given)
2 | 48 to 49 | BrCCC1c2ccccc2-c2ccccc21
3 | 170 | COc1ccc(N2CCOCC2)c2sc(C(=O)NCC(=O)c3ccsc3)nc12
4 | 160 to 162 | CC(=O)NC[C@H]1CN(c2cc(F)c(N3CCN(C(=O)CO)CC3)c(F)c2)C(=O)O1
5 | 198 to 199 | O=C1C(c2ccccc2)=C(c2ccccc2)C(=O)N1c1ccc(Cl)cc1
6 | 125 | CC(C)(C)OC(=O)n1c(-c2ccc3c(c2)C(C)(C)OC(=O)N3)ccc1[N+](=O)[O-]
7 | 106 to 110 | N#Cc1c(OCC(F)(F)F)nc(CO)nc1N1CCc2ccccc2CC1
8 | 210 to 212 | CCC(Nc1ncnc2[nH]cnc12)c1oc2cccc(F)c2c(=O)c1-c1ccccc1 (stereo not given)
9 | 106 to 108 | COC1=CC(=O)C2=C(C1=O)C1CCC2C1 (stereo not given)
10 | 222 to 224 | CCn1cc(C(=O)O)c(=O)c2ccc(C3CCCCC3)cc21
11 | 110 to 112 | O=C(O)CCSc1cccs1
12 | > 70 | CC(=O)Nc1cc2c(cc1Br)C(Nc1ccc(C(=O)OC(C)(C)C)c(F)c1)CC2 (stereo not given)
13 | 189 to 190 | COc1ccc(C(=O)c2ccc(OC)c([N+](=O)[O-])c2)cc1[N+](=O)[O-]
14 | > 275 | Cc1ccc(-n2c(-c3sc(Nc4ccc(Cl)cc4)nc3C)nc3ccccc3c2=O)cc1
15 | 158 to 161 | O=S(=O)(c1ccccc1)c1c(-c2ccc(Cl)cc2)[nH]c(C(F)(F)F)c1Cl
16 | 111 to 112 | CC(SC1COC(C=CC=Cc2ccc(C#N)cc2F)OC1)C(O)(Cn1cncn1)c1ccc(F)cc1F (stereo not given)
17 | 96 to 98 | COC=C(C(=O)OC)N(C)c1nc(-c2ccc(Cl)c(Cl)c2)cs1
18 | 66 to 68 | CC1Cc2cc(F)c(F)cc2C1=O (stereo not given)
19 | 76 to 78 | CC(C)=CCc1cc(C2CC(=O)c3ccc(O)cc3O2)ccc1O (stereo not given)
20 | 245 to 247 | CCN1C(=O)C(NC(=O)C(F)(F)F)CCc2c1ccc(Nc1ncc(Cl)c(Nc3ccccc3S(=O)(=O)C(C)C)n1)c2OC (stereo not given)
21 | 185 | COc1ccc(C(=O)C2=C(O)C(=O)N(c3nnc(C)s3)C2c2ccc(C#N)cc2)cc1 (stereo not given)
22 | 89.2 to 90.2 | CCOCC(C)Oc1ccc(CSc2cnn(C(C)(C)C)c(=O)c2Cl)cc1 (stereo not given)

Row | melting point [°C] | Structure (SMILES)
23 | 193 to 195 | Cn1c(=O)c(-c2ccc(Cl)cc2Cl)cc2c3cc(-c4csc(COC(=O)C(C)(C)C)n4)ccc3n(C)c21
24 | 172 to 173 | FCCn1ncnc1COc1nn2c(-c3ccccc3F)nncc2c1-c1ccccc1F
25 | 226 to 228 | CCOC(=O)NN=Cc1nc(C(C)(C)C)[nH]c1C
26 | 92 to 94 | CCCCCCCCNC(=O)Nc1sc(C(=O)OC(C)CCCCCC)c(C)c1C(=O)OC(C)(C)C (stereo not given)
27 | 212 to 213 | Cc1sc2c(I)c3ccccc3c(-c3ccc(OS(C)(=O)=O)cc3)c2c1C
28 | 216 to 217 | CC(=O)Oc1cn(Cc2c(F)cccc2F)c2sc(-c3ccc([N+](=O)[O-])cc3)c(C)c2c1=O
29 | 229 to 230 | COCC1CCCN(c2ccnc3sc(C(N)=O)c(N)c23)C1 (stereo not given)
30 | 69 to 70 | CC(=O)OCCOCn1cnc2c(N)nc(N)nc21
31 | 72 to 73 | O=C(O)CCCCCOc1cccc(OCc2ccccc2)c1
32 | 169 to 171 | CS(=O)(=O)c1cc(C=O)cc(O)c1O
33 | 110 to 117 | Cc1noc(NS(=O)(=O)c2ccccc2-c2ccc(-c3ncco3)cc2CN(C)C(=O)CCc2ccccc2)c1C
34 | 212 to 214 | COc1cc(OCc2ccccn2)ccc1/C=C/c1cc(/C=C/c2ccc3ccn(S(C)(=O)=O)c3c2)n[nH]1
35 | 32 to 34 | COc1ccc2cccc(Cl)c2c1
36 | 188 to 189 | CCCCc1nc2c(N)nc3cc(OCc4ccccc4)ccc3c2n1CCOc1ccccc1
37 | 55 to 58 | Cc1cccc(NCC(C)Br)c1C (stereo not given)
38 | 107 to 108 | C#CCOc1noc2c1CN(C(=O)OC(C)(C)C)CC2
39 | 365 | CCCn1c(=O)[nH]c2ccc(C(=O)c3nc(-c4cccc(C(=O)O)c4)c4ccccn34)cc2c1=O
40 | 243 to 245 | CC(C)NC(=O)C(C#N)=Cc1cc(O)c(O)c([N+](=O)[O-])c1
41 | 313 | Cc1sc(S(N)(=O)=O)cc1NC(=O)c1cnn2c(C(F)F)cc(-c3ccc(C(F)(F)F)cc3)nc12
42 | 138 | COC(=O)Cc1sc(=S)[nH]c1COc1ccccc1
43 | 122 to 126 | COc1ccc(C(=O)CC(=O)Nc2ccc(C)cc2)cc1
44 | 217 to 221 | COC(=O)CCc1cc2cc(Cl)ccc2n1S(=O)(=O)c1ccc2nc(NC(C)=O)sc2c1

Row | melting point [°C] | Structure (SMILES)
45 | 136 to 138 | O=C(Nc1cccc(F)c1)NN1CC=CCC1
46 | 191 to 192 | CC(C)Cn1c(CO)c(-c2ccccc2F)c2cc(OCc3ccccc3)ccc2c1=O
47 | 72 to 73 | Cc1cc(C)c2c(c1C)OCC2c1ccccc1 (stereo not given)
48 | 70 to 80 | COC1(c2cc(F)cc(OCc3nc(-c4ccccc4)c(-c4ccc(S(N)(=O)=O)cc4)o3)c2)CCOCC1
49 | 143 to 144 | O=C(CO)OC(=O)CCS
50 | 129 to 130 | COC(=O)c1cc2ccc(OCc3ccccc3)cc2oc1=O
51 | 176 to 178 | CC1(C)Oc2c(c(=O)n(Cc3ccccc3)c3ccccc23)[C@@H](NC(=O)CCCCl)[C@@H]1O (relative stereo)
52 | > 250 | Cc1oc2c(NC(=O)c3c(Cl)cccc3Cl)cc(NC(N)=O)cc2c1C
53 | 86 to 89 | Cn1ccnc1S(=O)CC(=O)C12CC3CC(CC(C3)C1)C2 (stereo not given)
54 | 186 | Cc1c(C(=O)Nc2ccc(N3CCC(CCO)CC3)c(C#N)c2)cnn1-c1ccc(F)cc1
55 | 62 to 65 | CCCCCCCCCCCCCCCCCCOc1cc(OCCOc2ccc3ccccc3c2)cc(C(=O)OCc2ccccc2)c1
56 | 157 to 159 | CCOC(=O)C(NC(C)=O)C(O)c1ccc(C=Cc2csc3ccccc23)s1 (stereo not given)
57 | 70 | COC(=O)c1ccc(C(C)(O)c2cc3cc(C(F)(F)F)ccc3n2S(=O)(=O)c2cccc(C(C)(C)C)c2)cc1 (stereo not given)
58 | 184 to 186 | CN1CCN(c2c(Br)cc3c4c(cccc24)C(=O)N(O)C3=O)CC1
59 | 236 to 238 | COc1ccc(C(CC(=O)O)N2C(=O)C3C=C(Cl)C(Cl)=C(Cl)C3(Cl)C2=O)cc1 (stereo not given)
60 | 253 to 255 | COc1cc(-c2cc(=O)c3cccnc3o2)ccc1O
61 | 98 to 101 | CCCSc1nc(C)c(CO)n1-c1ccccc1Cl
62 | 91 to 94 | CC1(COCc2ccccc2)COC(C)(C(=O)N(C(N)=O)c2ccccc2)O1 (stereo not given)
63 | 150 to 151 | O=C(Nc1nc(=O)n(S(=O)(=O)c2ccccc2)cc1F)c1ccccc1
64 | 88 to 89 | O=C(O)CCCCC(=NOCc1ccc(OCc2noc(-c3ccccc3)n2)cc1)c1ccccc1
65 | 169 to 172 | C=CCNC(=O)Nc1ccccc1CCc1cc(C(C)(C)C)c(O)c(C(C)(C)C)c1
66 | 149 to 151 | Cc1cc(-c2cc(O)c(SCCc3ccccc3)c(=O)o2)ccc1OCc1cccnc1

Row | melting point [°C] | Structure (SMILES)
67 | 161 to 162 | COc1ccc(CN2C(=O)C3(COc4cc5c(cc43)OCCO5)c3ccccc32)cn1 (stereo not given)
68 | 68 to 70 | COc1cccc(C23CCCC(C2)N(C)C3=O)c1 (stereo not given)
69 | 202 to 203 | Nc1cccc(N2C(=O)CCCC2c2ccc(Cl)c(Cl)c2)c1 (stereo not given)
70 | 244 to 245 | CC(C)Cc1nc2sc3c(NCc4cccnc4)ncnc3c2c2c1COC(C)(C)C2
71 | 145 to 146 | CCN(CC)CCNc1ccc(C=O)c2sc3ccc(Br)cc3c(=O)c12
72 | 164 to 165 | COc1ccc(OC)c(C(=O)CC(CC(=O)c2ccc(Cl)cc2)c2cccc(C(=O)O)c2)c1 (stereo not given)
73 | 177 to 178 | COc1ccc(C(=O)Nc2ccccc2)cc1NC(=S)Nc1cccc(C(F)(F)F)c1
74 | 171 to 173 | CC12CCC(=O)C=C1CCC1C2CCC2(C)C(C(=O)c3ccccc3)CCC12 (stereo not given)
75 | 101 to 102 | COc1ccc(CC(=O)c2ccc(OC)nc2)cc1
76 | 84 to 86 | CC(C)N1C(=O)NC(c2ccc3ocnc3c2)c2cc3c(cc21)OCO3 (stereo not given)
77 | 201 to 202 | Oc1ccc(-c2c3ccccc3cc3oc4ccccc4c23)c(O)c1
78 | 185 to 188 | O=C(O)COc1ccc(N2CC(=O)NS2(=O)=O)c(O)c1
79 | 204 to 206 | O=c1nc(Cc2ccccc2)nc2n(C3CCCC3)[nH]c(Cc3ccccc3)c1-2
80 | 62 to 68 | Nc1ccc(C(O)C(CO)N2CCC(Cc3ccccc3)CC2)cc1 (stereo not given)
81 | 115 to 120 | N#CCNS(=O)(=O)c1ccc([N+](=O)[O-])cc1
82 | 143 to 146 | O=C1c2ccccc2CN1C1CCN(CCCCC2(C(=O)NCC(F)(F)F)c3ccccc3-c3ccccc32)CC1
83 | 144 to 146 | COc1ccc(C(F)(F)F)cc1Nc1cccn2nc(Cl)nc12
84 | > 300 | CCC1=C(C#N)C(c2cccc(C#N)c2Cl)c2c[nH]nc2N1 (stereo not given)
85 | 128 to 130 | O=C(CCl)N1CC=C(c2cccc(C(F)(F)F)c2)n2ncc(Br)c21
86 | 135 to 137 | CC1(C)C=C(C(=O)CCCN2CCC(C(O)(c3ccccc3)c3ccccc3)CC2)C=CC1CCO (stereo not given)
87 | 105 to 107 | Cc1ccc(S(=O)(=O)N2CCC[C@H]2C(=O)N[C@@H](Cc2ccc(OCCN3CCCCCC3)cc2)C(=O)O)cc1
88 | 126 to 128 | CCC(=O)N1CCNC1=Nc1ccc(Cl)cc1Cl

Row | Structure (SMILES) | melting point [°C]
89 | CN1Cc2c(C(=O)OCC3CC3)ncn2-c2ccc(F)cc2C1=O | 156 to 157
90 | COc1c(C)c(C)c(OC)c(C(O)CN)c1C (stereo not given) | 110 to 112
91 | CN1CCN(C(=O)COc2cccc(CCNS(=O)(=O)c3ccc(Cl)cc3)c2)CC1 | 139 to 141
92 | CNC(=O)Oc1ccc2c(ccn2NCCCc2ccncc2F)c1 | 165 to 166
93 | CCC12CCC3C(=CCC4(C)C(O)CCC34)C1(C)CCC(O)C2 (stereo not given) | 165
94 | CNC(=O)c1ccc(N2CCNCC2)c(Cl)c1 | 176 to 189
95 | CC(C)Cc1ccc(CCc2cc3c(s2)NC(=O)C(c2ccccc2)N=C3c2ccccc2Cl)cc1 (stereo not given) | 201 to 203
